We go through 69 compounds from the PolyMetriX glass transition set.

With `*/C(Cl)=C(/*)CCCCCCCC` (repeat unit), the glass transition temperature worked out at 90.00 °C.
The value for `*C(=O)OCC(COc1ccc(/N=N/c2ccc(C#N)cc2)cc1)OC(=O)c1ccc(*)s1` (repeat unit) was 119.00 °C; that for `*C(=O)OCC(COc1ccc(/N=N/c2ccc(C#N)cc2)cc1)OC(=O)c1ncccc1*` (repeat unit) was 130.00 °C; that for `*C(=O)OCCN(CCOC(=O)c1ccc2c(c1)C(=O)N(c1c(C)cc(Cc3cc(C)c(N4C(=O)c5ccc(*)cc5C4=O)c(C)c3)cc1C)C2=O)c1ccc(/N=N/c2ccc([N+](=O)[O-])cc2)cc1` (repeat unit) was 179.00 °C.
In turn, `*C(=O)OCCN(CCOC(=O)c1ccc2c(c1)C(=O)N(c1c(C)cc(Cc3cc(C)c(N4C(=O)c5ccc(*)cc5C4=O)c(C)c3)cc1C)C2=O)c1ccccc1` (repeat unit) came in with a glass transition temperature of 177.00 °C.
The result for `*C(=O)c1ccc2c(c1)C(=O)N(c1c(C(C)C)cc(Cc3cc(C(C)C)c(N4C(=O)c5ccc(*)cc5C4=O)c(C(C)C)c3)cc1C(C)C)C2=O` (repeat unit) reads 263.00 °C; that for `*CC(=O)NCC(=O)O*` (repeat unit), 67.00 °C; that for `*CC(=O)NCCCCCCNC(=O)COC(=O)CCCCCCCCC(=O)O*` (repeat unit), 2.00 °C.
The result for `*CC(=O)NCCCCCCNC(=O)COc1ccc(O*)cc1` (repeat unit) reads 67.00 °C; that for `*CC(=O)Nc1ccc(NC(=O)COc2ccc3ccccc3c2Sc2c(O*)ccc3ccccc23)cc1` (repeat unit), 268.00 °C; that for `*CC(=O)Nc1ccc(Oc2ccc(NC(=O)COc3ccc4ccccc4c3Sc3c(O*)ccc4ccccc34)cc2)cc1` (repeat unit), 245.00 °C.
`*CC(=O)Nc1cccc2c(NC(=O)COc3ccc4ccccc4c3Sc3c(O*)ccc4ccccc34)cccc12` (repeat unit): the glass transition temperature came to 264.00 °C.
For the compound `*CC(=O)OC(=O)COc1ccc(O*)cc1` (repeat unit), the glass transition temperature came out at 70.00 °C.
The result for `*CC(C)(C)COC(=O)CCC(=O)O*` (repeat unit) reads -18.00 °C; that for `*CC(C)(C)COC(=O)c1ccc(-c2ccc(C(=O)O*)cc2)cc1` (repeat unit), 101.00 °C; that for `*CC(C)(C)COC(=O)c1ccc(/C=C/c2ccc(C(=O)O*)cc2)cc1` (repeat unit), 80.00 °C.
The result for `*CC(C)(C)CS(*)(=O)=O` (repeat unit) reads 108.50 °C; that for `*CC(C)(C)CS(=O)(=O)CC(C)(C)COC(=O)NCCCCCCNC(=O)O*` (repeat unit), 30.00 °C.
For `*CC(C)(CC)CO*` (repeat unit), the glass transition temperature is -47.00 °C.
`*CC(C)(CC)COC(=O)CCCCCCCCC(=O)O*` (repeat unit) gave a glass transition temperature of -69.00 °C.
In turn, `*CC(C)(CCC)C(=O)O*` (repeat unit) registered a glass transition temperature of 1.90 °C.
The value for `*CC(C)C(=O)O*` (repeat unit) was -25.00 °C; that for `*CC(CC)(CC)CO*` (repeat unit) was -30.00 °C; that for `*CC(CC)(CO*)COC(=O)C(=C)C` (repeat unit) was 40.00 °C.
The result for `*CC(CCCCCC)C(CCCCCC)COC(=O)c1ccc(C(=O)O*)cc1` (repeat unit) reads -15.50 °C; that for `*CC(CCCCCCCC)COC(=O)NC(=O)c1cccc(C(=O)NC(=O)O*)c1` (repeat unit), 65.00 °C; that for `*CC(CCCCCCCCCCCC)COC(=O)NC(=O)c1cccc(C(=O)NC(=O)O*)c1` (repeat unit), 112.00 °C.
The result for `*CC(CCCCCCOc1ccc(/N=N/c2ccc(C#N)cc2)cc1)COC(=O)CCCCCCCCCCCCC(=O)O*` (repeat unit) reads 21.50 °C; that for `*CC(CO*)(CS(=O)(=O)CC)CS(=O)(=O)CC` (repeat unit), 84.00 °C.
In turn, `*CC(COc1ccc(C(C)(C)c2ccc(O*)cc2)cc1)OC(C)=O` (repeat unit) came in with a glass transition temperature of 60.00 °C.
The value for `*CC(COc1ccc(S(=O)(=O)c2ccc(O*)cc2)cc1)OC(C)=O` (repeat unit) was 130.00 °C; that for `*CC(F)(F)C(F)(F)C(F)(F)COC(=O)c1cc(OCCCCC)cc(C(=O)O*)c1` (repeat unit) was -30.00 °C; that for `*CC(F)(F)C(F)(F)C(F)(F)COC(=O)c1ccc(OCCCCC)c(C(=O)O*)c1` (repeat unit) was 9.00 °C.
The value for `*CC(O)CO*` (repeat unit) was 17.00 °C; that for `*CC(OC(=O)C(=O)OCC)C(COC(=O)O*)OC(=O)C(=O)OCC` (repeat unit) was 53.80 °C; that for `*CC(OC=O)C(COC(=O)O*)OC=O` (repeat unit) was 54.30 °C.
For the compound `*CC(OO*)c1ccc(Br)cc1` (repeat unit), the glass transition temperature stood at 9.60 °C.
As for `*CC(OO*)c1ccc(C(C)(C)C)cc1` (repeat unit), the glass transition temperature was found to be 19.90 °C.
Take `*CC(SS*)c1ccccc1` (repeat unit): the glass transition temperature stood at 4.80 °C.
`*CC1CC(COC(=O)c2ccc(C(=O)O*)cc2)CC(C(C)(C)C)C1` (repeat unit) yielded a glass transition temperature of 118.00 °C.
The value for `*CCC(C)(C)CC(C)COC(=O)CCCCC(=O)O*` (repeat unit) was -70.00 °C; that for `*CCC(C)(C)CC(C)COC(=O)c1ccc(C(=O)O*)cc1` (repeat unit) was -9.00 °C; that for `*CCCCCCCC(=O)OCC1(C)COC(*)OC1` (repeat unit) was -26.00 °C.
The result for `*CCCCCCCCCCCCOc1ccc(OCc2ccc(COc3ccc(O*)cc3)cc2)cc1` (repeat unit) reads 24.00 °C.
The value for `*CCCCOC(=O)COCC(=O)O*` (repeat unit) was -23.00 °C.
Compound `*CCSS*` (repeat unit) returned a glass transition temperature of -27.00 °C.
The result for `*CCSSSS*` (repeat unit) reads -24.00 °C; that for `*C[Si](*)(C)C` (repeat unit), -90.00 °C; that for `*C[Si](*)(C)CCCN(CC)CC` (repeat unit), -31.7 °C.
As for `*Cc1cc(COC(=O)Nc2ccc(Cc3ccc(NC(=O)O*)cc3)cc2)cc(C(C)(C)C)c1` (repeat unit), the glass transition temperature turned out to be 114.00 °C.
The result for `*Nc1cccc(NC(=O)c2cc(NC(=O)c3ccccc3)cc(C(*)=O)c2)c1` (repeat unit) reads 300.00 °C; that for `*OC(C)COC(C)COC(=O)c1ccc(C(*)=O)cc1` (repeat unit), 37.00 °C.
The result for `*OC(COC(*)=O)COC(C)(C)C` (repeat unit) reads 18.00 °C; that for `*OC(COC(=O)c1c(F)c(F)c(-c2c(F)c(F)c(C(*)=O)c(F)c2F)c(F)c1F)COc1ccc(/N=N/c2ccc(C#N)cc2)cc1` (repeat unit), 112.00 °C.
`*OC(COC(=O)c1cc(C(*)=O)cc(C(C)(C)C)c1)COc1ccc(/N=N/c2ccc(C#N)cc2)cc1` (repeat unit) showed a glass transition temperature of 137.00 °C.
The value for `*OC(COC(=O)c1ccc(C(*)=O)c2ccccc12)COc1ccc(/N=N/c2ccc(C#N)cc2)cc1` (repeat unit) was 117.00 °C.
The result for `*OC(COC(=O)c1ccc(C)cc1C(*)=O)COc1ccc(/N=N/c2ccc(C#N)cc2)cc1` (repeat unit) reads 124.00 °C; that for `*OC(COC(=O)c1ccc2cc(C(*)=O)ccc2c1)COc1ccc(/N=N/c2ccc(C#N)cc2)cc1` (repeat unit), 138.00 °C; that for `*OC(COC(=O)c1cccc(-c2ccc(C(*)=O)cc2)c1)COc1ccc(/N=N/c2ccc(C#N)cc2)cc1` (repeat unit), 135.00 °C.
The value for `*O[Si](C)(C)CC(C)(C)COC(=O)c1cccc(C(=O)OCC(C)(C)C[Si](*)(C)C)c1` (repeat unit) was -52.00 °C; that for `*Oc1ccc(OC(C)COCCCCCCCOc2ccc(-c3ccc(C(*)=O)cc3)cc2)c([N+](=O)[O-])c1` (repeat unit) was 50.00 °C.
Take `*Oc1ccc(S(=O)(=O)c2ccc(Oc3ccc(NC(=O)c4cc(NC(=O)c5ccncc5)cc(C(=O)Nc5ccc(*)cc5)c4)cc3)cc2)cc1` (repeat unit): the glass transition temperature was 283.00 °C.
As to `*Oc1cccc(Oc2ccc(NC(=O)c3cc(NC(=O)c4ccc(OC(C)=O)cc4)cc(C(=O)Nc4ccc(*)cc4)c3)cc2)c1` (repeat unit), the glass transition temperature was 230.00 °C.
`*Oc1cccc2ccc(Oc3ccc(NC(=O)c4cc(C(=O)Nc5ccc(*)cc5)cc(C(C)(C)C)c4)cc3)cc12` (repeat unit) showed a glass transition temperature of 263.00 °C.
`*SCC(=O)N/N=C/c1ccc(OCCCCCCCCCCOc2ccc(/C=N/NC(=O)CSc3nnc(*)s3)cc2)cc1` (repeat unit) gave a glass transition temperature of 117.00 °C.
The result for `*c1c(C)cc(Cc2cc(C)c(N3C(=O)c4ccc(Oc5ccc6ccc(Oc7ccc8c(c7)C(=O)N(*)C8=O)cc6c5)cc4C3=O)c(C)c2)cc1C` (repeat unit) reads 272.00 °C; that for `*c1ccc(NC(=O)c2cc(NC(=O)c3ccc(NC(=O)C(C)N4C(=O)c5ccccc5C4=O)cc3)cc(C(=O)Nc3ccc(S(*)(=O)=O)cc3)c2)cc1` (repeat unit), 208.00 °C.
With `*c1ccc2c(c1)C(=O)N(c1c(C(C)C)cc(Cc3cc(C(C)C)c(N4C(=O)c5ccc(C(*)(C(F)(F)F)C(F)(F)F)cc5C4=O)c(C(C)C)c3)cc1C(C)C)C2=O` (repeat unit), the glass transition temperature came to 278.50 °C.
`*c1ccc2c(c1)C(=O)N(c1c(C)cc(Cc3cc(C)c(N4C(=O)c5ccc(C(*)(C(F)(F)F)C(F)(F)F)cc5C4=O)c(C)c3)cc1C)C2=O` (repeat unit) came in with a glass transition temperature of 307.50 °C.
